Measured values reported in ChEMBL document CHEMBL4619774 (J Med Chem, 2020).
pIC50: −log10 of the molar value. In brackets after ≈: the same amount, converted by molar mass.

What was measured:
[1] = Dose normalized Cmax in C57BL/6 mouse at 1 mg/kg, iv bolus injection or 3 mg/kg, po by LC-MS/MS analysis; format: ADME, organism-based; conditions: in vivo
in vitro [2] = conditions: human, Caco-2
in vitro [3] = conditions: human, Caco-2; remark: listed apart in the source
[4] = Volume of distribution at steady state in C57BL/6 mouse at 1 mg/kg, iv bolus injection or 3 mg/kg, po by LC-MS/MS analysis; format: ADME, organism-based; conditions: in vivo, read-out: Vdss
physchem = conditions: aqueous buffer, pH 6.8
[5] = Oral bioavailability in C57BL/6 mouse at 3 mg/kg by LC-MS/MS analysis; format: ADME, organism-based; conditions: in vivo
in vitro [6] = conditions: human, Caco-2; remark: listed apart in the source
[7] = Clearance in C57BL/6 mouse at 1 mg/kg, iv bolus injection or 3 mg/kg, po by LC-MS/MS analysis; format: ADME, organism-based; conditions: in vivo
Coagulation factor XI [8] = target: T1, Coagulation factor XI (Homo sapiens, UniProt P03951); test: Inhibition of […] human plasma F11a catalytic domain expressed in Escherichia coli strain BL21(DE3) using D-Leu-Pro-Arg*Rh110-D-Pro as substrate preincubated for 60 mins followed by substrate addition and measured after 60 mins by fluorescence assay
T1 sequence (P03951 19-387 limits assumed): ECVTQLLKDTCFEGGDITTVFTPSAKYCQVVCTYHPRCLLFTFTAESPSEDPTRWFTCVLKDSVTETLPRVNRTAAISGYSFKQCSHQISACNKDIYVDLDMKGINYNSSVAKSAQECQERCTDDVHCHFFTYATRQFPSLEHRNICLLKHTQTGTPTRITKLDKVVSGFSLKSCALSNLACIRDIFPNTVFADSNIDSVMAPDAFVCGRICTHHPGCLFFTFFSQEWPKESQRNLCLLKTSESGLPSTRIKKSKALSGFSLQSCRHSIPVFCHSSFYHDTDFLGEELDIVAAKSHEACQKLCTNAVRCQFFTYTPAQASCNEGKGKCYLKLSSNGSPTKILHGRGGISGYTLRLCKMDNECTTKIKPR
T1 sequence (P03951 388-625 limits assumed): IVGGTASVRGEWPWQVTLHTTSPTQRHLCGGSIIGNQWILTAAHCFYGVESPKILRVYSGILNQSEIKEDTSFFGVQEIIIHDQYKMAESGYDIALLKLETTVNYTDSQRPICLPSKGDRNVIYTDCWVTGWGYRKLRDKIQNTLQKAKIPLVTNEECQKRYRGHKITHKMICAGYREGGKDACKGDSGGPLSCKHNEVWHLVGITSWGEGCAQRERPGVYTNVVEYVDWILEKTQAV

Plasma kallikrein = Plasma kallikrein (Homo sapiens, UniProt P03952); format: single protein
Chain of Plasma kallikrein (P03952 20-390 limits assumed): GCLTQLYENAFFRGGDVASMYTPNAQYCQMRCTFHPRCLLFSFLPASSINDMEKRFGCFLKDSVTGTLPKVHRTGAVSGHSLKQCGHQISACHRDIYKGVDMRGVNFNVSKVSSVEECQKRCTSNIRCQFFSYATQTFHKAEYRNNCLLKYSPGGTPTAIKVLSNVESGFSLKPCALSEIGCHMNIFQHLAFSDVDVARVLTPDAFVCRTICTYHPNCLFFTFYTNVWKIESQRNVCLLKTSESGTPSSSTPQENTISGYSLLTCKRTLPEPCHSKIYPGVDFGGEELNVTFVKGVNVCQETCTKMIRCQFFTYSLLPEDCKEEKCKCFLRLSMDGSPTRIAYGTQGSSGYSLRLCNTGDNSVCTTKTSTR
Chain of Plasma kallikrein (P03952 391-638 limits assumed): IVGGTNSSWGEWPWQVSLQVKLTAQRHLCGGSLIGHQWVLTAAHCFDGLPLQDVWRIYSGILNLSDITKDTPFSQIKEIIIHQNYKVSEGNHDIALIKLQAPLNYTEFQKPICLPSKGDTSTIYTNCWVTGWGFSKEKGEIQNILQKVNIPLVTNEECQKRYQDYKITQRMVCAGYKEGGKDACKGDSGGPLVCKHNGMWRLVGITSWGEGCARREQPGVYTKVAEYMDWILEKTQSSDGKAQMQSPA

Coagulation factor XI [9] = target: T1, Coagulation factor XI; test: Inhibition of human F11a using D-Leu-Pro-Arg*Rh110-D-Pro as substrate preincubated for 60 mins followed by substrate addition and measured after 60 mins by fluorescence assay
[10] = Terminal half life in C57BL/6 mouse at 1 mg/kg, iv bolus injection or 3 mg/kg, po by LC-MS/MS analysis; format: ADME, organism-based; conditions: in vivo, read-out: beta t1/2 (converted)
Complement factor D = Complement factor D (Homo sapiens, UniProt P00746); format: single protein
Chain of Complement factor D (P00746 whole entry): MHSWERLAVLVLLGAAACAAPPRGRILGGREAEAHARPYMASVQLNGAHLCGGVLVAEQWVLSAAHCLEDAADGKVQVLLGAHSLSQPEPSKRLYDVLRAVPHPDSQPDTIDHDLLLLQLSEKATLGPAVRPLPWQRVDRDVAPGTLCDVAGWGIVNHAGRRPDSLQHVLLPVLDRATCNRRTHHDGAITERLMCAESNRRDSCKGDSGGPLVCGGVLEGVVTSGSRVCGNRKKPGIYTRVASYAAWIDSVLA

[11] = Dose normalized AUC in C57BL/6 mouse at 3 mg/kg, po by LC-MS/MS analysis; format: ADME, organism-based; conditions: in vivo
Homo sapiens = species: Homo sapiens; test: Selectivity ratio of IC50 for inhibition of human complement FD to IC50 for inhibition of human F11a
[12] = human, caco-2; BLD = below limit of detection
Coagulation factor X = Coagulation factor X (Homo sapiens, UniProt P00742); format: single protein
Chain of Coagulation factor X (P00742 41-179 limits assumed): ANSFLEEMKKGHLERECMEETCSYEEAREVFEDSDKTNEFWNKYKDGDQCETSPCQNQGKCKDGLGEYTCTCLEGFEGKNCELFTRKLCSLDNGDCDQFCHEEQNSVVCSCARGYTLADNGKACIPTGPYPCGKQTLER
Chain of Coagulation factor X (P00742 235-488 limits assumed): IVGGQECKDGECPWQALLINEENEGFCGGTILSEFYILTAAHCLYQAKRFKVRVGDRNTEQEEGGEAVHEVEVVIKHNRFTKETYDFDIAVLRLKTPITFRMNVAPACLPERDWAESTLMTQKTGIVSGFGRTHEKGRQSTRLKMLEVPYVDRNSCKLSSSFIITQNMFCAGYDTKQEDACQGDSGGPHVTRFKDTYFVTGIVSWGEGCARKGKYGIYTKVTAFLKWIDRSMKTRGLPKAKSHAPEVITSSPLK

Coagulation factor IX = Coagulation factor IX (Homo sapiens, UniProt P00740); format: single protein
Chain of Coagulation factor IX (P00740 47-191 limits assumed): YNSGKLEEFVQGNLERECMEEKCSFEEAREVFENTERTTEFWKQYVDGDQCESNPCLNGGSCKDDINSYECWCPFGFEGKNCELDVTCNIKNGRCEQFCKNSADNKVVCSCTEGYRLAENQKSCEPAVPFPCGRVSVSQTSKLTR
Chain of Coagulation factor IX (P00740 227-461 limits assumed): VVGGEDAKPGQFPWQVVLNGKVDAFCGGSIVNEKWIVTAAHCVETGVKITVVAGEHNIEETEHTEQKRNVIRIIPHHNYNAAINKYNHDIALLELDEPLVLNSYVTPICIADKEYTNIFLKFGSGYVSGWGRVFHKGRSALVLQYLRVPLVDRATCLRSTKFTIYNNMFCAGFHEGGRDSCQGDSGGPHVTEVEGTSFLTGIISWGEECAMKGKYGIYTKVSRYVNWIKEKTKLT

Coagulation factor VII = target: T2, Coagulation factor VII (Homo sapiens, UniProt P08709); format: single protein
T2 sequence (P08709 whole entry): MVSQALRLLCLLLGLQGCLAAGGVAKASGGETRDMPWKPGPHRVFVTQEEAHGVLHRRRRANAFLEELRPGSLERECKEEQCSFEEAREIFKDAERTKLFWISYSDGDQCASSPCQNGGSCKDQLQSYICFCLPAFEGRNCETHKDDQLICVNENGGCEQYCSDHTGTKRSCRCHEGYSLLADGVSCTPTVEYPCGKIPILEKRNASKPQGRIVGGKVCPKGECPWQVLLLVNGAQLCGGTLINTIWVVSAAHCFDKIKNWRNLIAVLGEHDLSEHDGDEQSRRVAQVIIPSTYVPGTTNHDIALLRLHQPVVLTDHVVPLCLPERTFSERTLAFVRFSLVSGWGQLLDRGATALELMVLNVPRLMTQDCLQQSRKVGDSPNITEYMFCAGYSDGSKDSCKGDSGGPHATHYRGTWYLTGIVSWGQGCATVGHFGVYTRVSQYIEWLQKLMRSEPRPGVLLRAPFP

Plasma [13] = test: Effect on coagulation in human plasma assessed as concentration required to double the prothrombin time by thromboplastin-DS reagent based automated coagulometric method; format: ADME, cell-free
[14] = target: Tissue-type plasminogen activator (Homo sapiens, UniProt P00750); format: single protein
Chain of Tissue-type plasminogen activator (P00750 whole entry): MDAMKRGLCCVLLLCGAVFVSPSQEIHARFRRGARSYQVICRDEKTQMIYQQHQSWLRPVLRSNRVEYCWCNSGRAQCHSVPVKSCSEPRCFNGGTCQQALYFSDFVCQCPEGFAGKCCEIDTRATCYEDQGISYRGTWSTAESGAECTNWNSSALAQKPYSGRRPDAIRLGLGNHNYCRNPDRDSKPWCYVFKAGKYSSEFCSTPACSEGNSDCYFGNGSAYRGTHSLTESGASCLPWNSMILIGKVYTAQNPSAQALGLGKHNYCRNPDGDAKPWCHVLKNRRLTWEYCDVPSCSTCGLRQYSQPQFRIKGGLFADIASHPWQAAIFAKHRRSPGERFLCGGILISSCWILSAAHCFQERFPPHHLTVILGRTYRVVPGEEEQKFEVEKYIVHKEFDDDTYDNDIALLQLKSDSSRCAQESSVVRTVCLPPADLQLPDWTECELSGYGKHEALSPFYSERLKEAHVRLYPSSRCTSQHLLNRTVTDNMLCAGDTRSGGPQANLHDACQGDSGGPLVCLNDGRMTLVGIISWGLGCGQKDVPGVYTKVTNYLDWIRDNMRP

Plasma [15] = test: Anticoagulant activity in human plasma assessed as concentration required to double the activated partial thromboplastin time incubated for 3 mins followed by calcium chloride addition by aPTT-s reagent based automated coagulometric method; format: functional
[16] = target: T3, Urokinase-type plasminogen activator (Homo sapiens, UniProt P00749); format: ADME
Prothrombin = Prothrombin (Homo sapiens, UniProt P00734); format: single protein
Plasminogen = Plasminogen (Homo sapiens, UniProt P00747); format: single protein
Chain of Plasminogen (P00747 97-580 limits assumed): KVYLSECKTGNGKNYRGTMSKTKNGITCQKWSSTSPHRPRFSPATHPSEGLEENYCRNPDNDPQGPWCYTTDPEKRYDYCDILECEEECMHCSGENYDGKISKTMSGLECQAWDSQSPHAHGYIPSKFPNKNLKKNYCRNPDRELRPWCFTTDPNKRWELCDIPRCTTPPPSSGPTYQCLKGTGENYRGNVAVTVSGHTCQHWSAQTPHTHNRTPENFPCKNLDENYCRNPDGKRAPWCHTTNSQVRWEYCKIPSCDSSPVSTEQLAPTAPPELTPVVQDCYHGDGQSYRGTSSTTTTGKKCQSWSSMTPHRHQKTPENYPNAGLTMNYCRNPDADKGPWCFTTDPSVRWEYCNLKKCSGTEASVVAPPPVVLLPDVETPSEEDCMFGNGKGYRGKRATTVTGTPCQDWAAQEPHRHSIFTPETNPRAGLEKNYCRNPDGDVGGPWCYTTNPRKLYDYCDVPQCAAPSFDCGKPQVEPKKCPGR
Chain of Plasminogen (P00747 581-810 limits assumed): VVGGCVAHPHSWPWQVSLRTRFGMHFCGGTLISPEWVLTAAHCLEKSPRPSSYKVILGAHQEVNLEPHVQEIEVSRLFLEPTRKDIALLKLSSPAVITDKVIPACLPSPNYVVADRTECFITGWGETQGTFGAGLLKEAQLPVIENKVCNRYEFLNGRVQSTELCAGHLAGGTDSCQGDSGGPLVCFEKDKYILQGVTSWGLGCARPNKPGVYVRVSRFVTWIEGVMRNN

[17] = Volume of distribution at steady state in C57BL/6 mouse at 0.4 mg/kg, iv bolus injection or 3 mg/kg, po by LC-MS/MS analysis; format: ADME, organism-based; conditions: in vivo, read-out: Vdss
[18] = Dose normalized Cmax in C57BL/6 mouse at 0.4 mg/kg, iv bolus injection or 3 mg/kg, po by LC-MS/MS analysis; format: ADME, organism-based; conditions: in vivo
[19] = Terminal half life in C57BL/6 mouse at 0.4 mg/kg, iv bolus injection or 3 mg/kg, po by LC-MS/MS analysis; format: ADME, organism-based; conditions: in vivo, read-out: beta t1/2 (converted)
[20] = target: T3, Urokinase-type plasminogen activator; format: single protein
[21] = Clearance in C57BL/6 mouse at 0.4 mg/kg, iv bolus injection or 3 mg/kg, po by LC-MS/MS analysis; format: ADME, organism-based; conditions: in vivo
[22] = Tmax in C57BL/6 mouse at 0.4 mg/kg, iv bolus injection or 3 mg/kg, po by LC-MS/MS analysis; format: ADME, organism-based; conditions: in vivo
[23] = Dose normalized AUC in C57BL/6 mouse at 0.4 mg/kg, iv bolus injection by LC-MS/MS analysis; format: ADME, organism-based; conditions: in vivo
[24] = target: Synaptic vesicular amine transporter (Homo sapiens, UniProt Q05940); test: Inhibition of VMAT2 (unknown origin)
[25] = target: Prostaglandin G/H synthase 1 (Homo sapiens, UniProt P23219); test: Inhibition of COX1 (unknown origin)
[26] = target: 3',5'-cyclic-AMP phosphodiesterase 4D (Homo sapiens, UniProt Q08499); test: Inhibition of PDE4D (unknown origin)
[27] = Lipophilicity, log D of compound at pH 6.8; format: physicochemical; conditions: buffer
[28] = Terminal half life in C57BL/6 mouse at 1 mg/kg, iv bolus injection or 10 mg/kg, po by LC-MS/MS analysis; format: ADME, organism-based; conditions: in vivo, read-out: beta t1/2 (converted)
[29] = Volume of distribution at steady state in C57BL/6 mouse at 1 mg/kg, iv bolus injection or 10 mg/kg, po by LC-MS/MS analysis; format: ADME, organism-based; conditions: in vivo, read-out: Vdss
[30] = Dose normalized AUC in C57BL/6 mouse at 1 mg/kg, iv by LC-MS/MS analysis; format: ADME, organism-based; conditions: in vivo
[31] = Dose normalized Cmax in C57BL/6 mouse at 1 mg/kg, iv bolus injection or 10 mg/kg, po by LC-MS/MS analysis; format: ADME, organism-based; conditions: in vivo
[32] = target: Voltage-gated inwardly rectifying potassium channel KCNH2 (Homo sapiens, UniProt Q12809)
Chain of Voltage-gated inwardly rectifying potassium channel KCNH2 (Q12809 whole entry): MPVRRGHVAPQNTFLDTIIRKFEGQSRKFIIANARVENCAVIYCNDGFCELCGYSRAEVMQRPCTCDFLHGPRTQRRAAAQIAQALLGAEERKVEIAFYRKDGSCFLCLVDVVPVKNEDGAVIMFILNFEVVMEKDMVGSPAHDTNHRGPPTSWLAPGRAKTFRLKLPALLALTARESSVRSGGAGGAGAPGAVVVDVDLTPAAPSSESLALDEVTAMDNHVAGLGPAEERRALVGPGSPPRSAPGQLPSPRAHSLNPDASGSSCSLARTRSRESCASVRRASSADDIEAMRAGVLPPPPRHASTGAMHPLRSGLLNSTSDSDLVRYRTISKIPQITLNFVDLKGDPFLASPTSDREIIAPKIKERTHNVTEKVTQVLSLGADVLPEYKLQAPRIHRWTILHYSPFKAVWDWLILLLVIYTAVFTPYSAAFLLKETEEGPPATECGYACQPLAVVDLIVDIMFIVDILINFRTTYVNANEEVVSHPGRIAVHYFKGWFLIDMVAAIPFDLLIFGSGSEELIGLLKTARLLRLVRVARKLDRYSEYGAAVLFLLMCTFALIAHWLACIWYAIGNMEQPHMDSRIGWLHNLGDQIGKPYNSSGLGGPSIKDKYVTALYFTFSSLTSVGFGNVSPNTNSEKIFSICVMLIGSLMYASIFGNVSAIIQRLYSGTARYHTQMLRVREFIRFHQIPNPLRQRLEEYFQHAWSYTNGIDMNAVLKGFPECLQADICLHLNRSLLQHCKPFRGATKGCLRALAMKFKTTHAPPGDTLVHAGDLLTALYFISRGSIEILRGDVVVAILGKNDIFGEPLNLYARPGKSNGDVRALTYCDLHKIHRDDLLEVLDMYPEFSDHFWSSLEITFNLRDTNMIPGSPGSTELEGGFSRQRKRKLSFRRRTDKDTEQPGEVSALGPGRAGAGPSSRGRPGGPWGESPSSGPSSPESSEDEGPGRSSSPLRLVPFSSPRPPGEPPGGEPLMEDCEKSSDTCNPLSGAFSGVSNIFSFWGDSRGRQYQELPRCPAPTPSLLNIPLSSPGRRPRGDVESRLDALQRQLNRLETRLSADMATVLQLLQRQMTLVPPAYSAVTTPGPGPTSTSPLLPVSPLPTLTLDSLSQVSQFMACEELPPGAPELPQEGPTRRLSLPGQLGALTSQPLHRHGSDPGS

Row | SMILES | Cmax/dose [1] | Papp B→A (in vitro [2]) | Vd [4] | solubility thermodynamic (physchem) | bioavailability [5] | clearance [7] | pIC50 (Coagulation factor XI [8]) | pIC50 (Plasma kallikrein) | pIC50 (Coagulation factor XI [9]) | half-life [10] | pIC50 (Complement factor D) | AUC/dose [11] | Ratio IC50 (Homo sapiens) | pIC50 (Coagulation factor X) | pIC50 (Coagulation factor IX) | pIC50 (Coagulation factor VII) | pIC50 [14] | pIC50 [16] | pIC50 (Prothrombin) | pIC50 (Plasminogen) | further results
1 | CC(C)(C#N)c1cc(COc2ccccc2CC(=O)O)cc(-c2ccc3c(c2)[C@H](N)CO3)c1 | 137 nM | 41 ×10⁻⁶ cm/s | 0.7 L/kg | 60 µM (≈ 26.6 µg/mL) | 25% | 55 mL/min/kg | 7.30 | 8.70 | 8.40 | 0.3 h | 7.40 | 171 nM·h | – | – | – | – | – | – | – | – | efflux ratio (in vitro [3]): 30; Papp A→B (in vitro [6]): 1.4 ×10⁻⁶ cm/s
2 | CC(C)(O)c1cc(COc2ccccc2CC(=O)O)cc(-c2ccc3c(c2)[C@H](N)CO3)c1 | 99 nM | 19 ×10⁻⁶ cm/s | 0.4 L/kg | > 1000 µM | 3% | 19 mL/min/kg | 6.77 | 8.22 | 8.40 | 1.7 h | 6.49 | 186 nM·h | 40 | – | – | – | – | – | – | – | Papp [12]: Bld
3 | CC1(C)COc2c(COc3ccccc3CC(=O)O)cc(-c3ccc4c(c3)[C@H](N)CO4)cc21 | 1126 nM | 12 ×10⁻⁶ cm/s | 1 L/kg | < 4 µM | 61% | 4 mL/min/kg | 7.07 | 8.15 | 8.52 | 6.4 h | 7.30 | 6525 nM·h | 17 | 6.08 | 6.68 | 5.15 | 7.00 | 7.80 | 6.89 | 5.20 | efflux ratio (in vitro [3]): 1; 2PT (Plasma [13]): 19.8 µM; 2aPTT (Plasma [15]): 2.5 µM; Papp A→B (in vitro [6]): 12 ×10⁻⁶ cm/s
4 | CC1(C)COc2c(COc3ccccc3CC(=O)O)cc(-c3ccc4c(c3)[C@H](N)CCO4)cc21 | – | – | – | – | – | – | 6.59 | 8.40 | 8.22 | – | 4.82 | – | 2500 | 5.37 | 5.80 | 4.12 | 6.72 | 6.02 | 6.07 | 4.85 | –
5 | CC(C)c1cc(CCN2CCc3cccc(C(=O)O)c32)cc(-c2ccc3c(c2)[C@H](N)CO3)c1 | – | – | – | – | 36% | – | 6.66 | 7.24 | 8.22 | – | 5.36 | 14041 nM·h | 700 | 5.74 | 5.48 | 5.21 | 6.18 | – | 5.51 | 5.59 | Vd [17]: 0.4 L/kg; Cmax/dose [18]: 1495 nM; half-life [19]: 9.2 h; pIC50 [20]: 6.28; clearance [21]: 1 mL/min/kg; Tmax [22]: 0.7 h; AUC/dose [23]: 38652 nM·h
6 | CC(C)(C(N)=O)c1cc(COc2ccccc2CC(=O)O)cc(-c2ccc3c(c2)[C@H](N)CO3)c1 | – | 4 ×10⁻⁶ cm/s | – | 780 µM (≈ 359 µg/mL) | – | – | 7.17 | 7.96 | 8.05 | – | 6.49 | – | 80 | – | – | – | – | – | – | – | Papp [12]: Bld
7 | CC(C)c1cc(COc2ccccc2CC(=O)O)cc(-c2ccc3c(c2)[C@H](N)CO3)c1 | 5263 nM | – | 0.4 L/kg | – | 100% | 1 mL/min/kg | – | – | – | 5.5 h | 7.40 | 48927 nM·h | – | 6.30 | 6.77 | 5.29 | 7.05 | 7.33 | 7.05 | 5.59 | pIC50 [24]: 5.28; pIC50 [20]: 7.33; pIC50 [25]: 5.48; 2PT (Plasma [13]): 9.9 µM; 2aPTT (Plasma [15]): 2.2 µM; pIC50 [26]: 5.14
8 | NCc1cccc(-c2cccc(COc3ccccc3CC(=O)O)c2)c1 | – | – | – | – | – | – | – | 5.51 | – | – | – | – | – | – | – | 5.85 | – | – | – | 5.66 | logD [27]: 1.91; half-life [28]: 1.6 h; Vd [29]: 0.7 L/kg; AUC/dose [30]: 3284 nM·h; Cmax/dose [31]: 2591 nM; pIC50 [32]: < 4.52
